A word on the IC50: it is the concentration at which inhibition is half-maximal.

In the assay the target is Neuraminidase (Influenza A virus (strain A/USSR/90/1977 H1N1), UniProt P03469, H274Y). Briefly: Inhibition of Influenza A virus (A/California/04/2009 (H1N1)) Neuraminidase H274Y mutant using MUNANA as substrate preincubated for 5 to 15 mins followed by substrate addition and measured after 30 mins by fluorescence spectrophotometric method.
Molecule `CCC(CC)O[C@@H]1C=C(C(=O)O)C[C@H](NC(N)=O)[C@H]1NC(C)=O` came in with an IC50 of 0.667 µM. For `CCCNNC(=O)N[C@H]1CC(C(=O)O)=C[C@@H](OC(CC)CC)[C@@H]1NC(C)=O`, half-maximal inhibition (IC50) was put at 0.384 µM. In the case of `CCCCNNC(=O)N[C@H]1CC(C(=O)O)=C[C@@H](OC(CC)CC)[C@@H]1NC(C)=O`, the IC50 worked out at 0.147 µM. The result for `CCC(CC)O[C@@H]1C=C(C(=O)O)C[C@H](NC(=O)NN)[C@H]1NC(C)=O` reads 0.133 µM. For the molecule `CCC(CC)O[C@@H]1C=C(C(=O)O)C[C@H](NC(=O)NNC)[C@H]1NC(C)=O`, 0.118 µM corresponded to half-maximal inhibition (IC50).

The record behind these values is ChEMBL document CHEMBL4837229 (Eur J Med Chem, 2021).
